In ChEMBL document CHEMBL1155838, “Biphenyl amide p38 kinase inhibitors 3: Improvement of cellular and in vivo activity” (Bioorg Med Chem Lett, 2008):

Experiments:
Type in all cases: ADME, organism-based
[1] = Oral bioavailability in Lewis rat at […]; conditions: in vivo
[2] = Volume of distribution at steady state in Lewis rat at 0.5 mg/kg, iv; design: dose 0.5 mg/kg, route intravenous; conditions: in vivo, read-out: Vdss
[3] = Terminal half life in Lewis rat plasma at 0.5 mg/kg, iv; design: dose 0.5 mg/kg, route intravenous; conditions: read-out: beta t1/2 (converted)
[4] = Clearance in Lewis rat plasma at 0.5 mg/kg, iv; design: dose 0.5 mg/kg, route intravenous

Cc1ccc(C(=O)NC2CC2)cc1-c1ccc(C(=O)NCC2CC2)cc1
bioavailability [1]: 113%
Vd [2]: 0.6 L/kg
half-life [3]: 1.3 h
clearance [4]: 6 mL/min/kg
